Source: patent publication US10399932B2, “Inhibitors of indoleamine-2,3-dioxygenase for the treatment of cancer” (BRISTOL-MYERS SQUIBB COMPANY, priority 2015, dated 2019)

Biological target: human IDO1 (Homo sapiens, UniProt P14902)
Test: Assessment of human IDO-1 inhibitory activity in HEK cells (human IDO1/HEK293 cells, Ehrlich reagent, absorbance at 490 nm)
Assay type: cell-based
Design: expressed in transfected cells
Details: In Vitro Potency in the HEK Human IDO-1 Cellular Assay
Description: Exemplary compounds were tested for inhibition of IDO activity.
HEK293 cells were transfected with a pCDNA-based mammalian expression vector harboring human IDO1 cDNA (NM 002164.2) by electroporation. They were cultured in medium (DMEM with 10% FBS) containing 1 mg/ml G418 for two weeks. Clones of HEK293 cells that stably expressed human IDO1 protein were selected and expanded for IDO inhibition assay.
The human IDO1/HEK293 cells were seeded at 10,000 cells per 50 μL per well with RPMI/phenol red free media contains 10% FBS in a 384-well black wall clear bottom tissue culture plate (Matrix Technologies LLC) 100 nL of certain concentration of compound was then added to each well using ECHO liquid handling systems. The cells were incubated for 20 hours in 37° C. incubator with 5% CO2.
The compound treatments were stopped by adding trichloroacetic acid (Sigma-Aldrich) to a final concentration at 0.2%. The cell plate was further incubated at 50° C. for 30 minute. The equal volume supernatant (20 μL) and 0.2% (w/v) Ehrlich reagent (4-dimethylaminobenzaldehyde, Sigma-Aldrich) in glacial acetic acid were mixed in a new clear bottom 384-well plate. This plate was then incubated at room temperature for 30 minute. The absorbance at 490 nm was measured on Envision plate reader.
Compound IC50 values were calculated using the counts of 500 nM of a reference standard treatment as one hundred percent inhibition, and counts of no compound but DMSO treatment as zero percent inhibition.

Chain of human IDO1 (P14902 whole entry): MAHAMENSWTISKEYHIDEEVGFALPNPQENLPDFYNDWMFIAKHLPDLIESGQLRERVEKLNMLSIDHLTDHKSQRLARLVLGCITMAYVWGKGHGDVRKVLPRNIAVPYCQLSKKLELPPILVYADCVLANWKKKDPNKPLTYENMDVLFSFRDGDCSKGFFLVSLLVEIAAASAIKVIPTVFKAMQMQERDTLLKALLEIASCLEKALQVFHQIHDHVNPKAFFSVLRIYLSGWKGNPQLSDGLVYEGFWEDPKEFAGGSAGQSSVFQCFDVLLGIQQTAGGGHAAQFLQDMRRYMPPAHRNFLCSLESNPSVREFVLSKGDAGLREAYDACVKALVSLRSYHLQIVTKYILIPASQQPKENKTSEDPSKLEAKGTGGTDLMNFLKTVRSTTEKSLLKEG

CCN(c1ccc(C(CC(=O)O)c2ccccc2)cc1Nc1ccc2nc(C)sc2c1)C1CCOCC1 (single isomer, unassigned) [Example 589, 3-(4-(ethyl(tetrahydro-2H-pyran-4-yl)amino)-3-((2-methylbenzo[d]thiazol-6-yl)amino)phenyl)-3-phenylpropanoic acid]
IC50: > 50 nM

CC(C)CN(c1ccc(C(CC(=O)O)C2CC2)cc1NC(=O)Nc1cncnc1)C1CCOCC1 (single isomer, unassigned) [Example 1207 Enantiomer 2, 3-Cyclopropyl-3-(4-(isobutyl(tetrahydro-2H-pyran-4-yl)amino)-3-(3-(pyrimidin-5-yl)ureido)phenyl)propanoic acid]
IC50: > 50 nM

COCC(CC(=O)O)c1cc(F)c(N(CC(C)C)C2CCCCC2)c(NC(=O)Nc2ccc(Cl)cc2F)c1 (single isomer, unassigned) [Example 1164, 3-(3-(3-(4-chloro-2-fluorophenyl)ureido)-4-(cyclohexyl(isobutyl)amino)-5-fluorophenyl)-4-methoxybutanoic acid]
IC50: < 5 nM

Cc1ccc(CC(=O)Nc2cc(C(CC(=O)O)C3CC3)ccc2N(CC(C)C)C2CCCCC2)cc1 (single isomer, unassigned) [Example 1249, 3-(4-(Cyclohexyl(isobutyl)amino)-3-(2-(p-tolyl)acetamido)phenyl)-3-cyclopropylpropanoic acid]
IC50: < 5 nM

CCOc1ccc(NC(=O)Nc2cc([C@@H](CC)CC(=O)O)ccc2N(CC)C2CCOCC2)cc1 (single isomer, unassigned) [Example 491]
IC50: < 50 nM

CCC(CC(=O)O)c1cc(NC(=O)Nc2ccc(C)cc2F)c(N(CC(C)C)C2CCCCC2)cc1F (single isomer, unassigned) [Example 1121, 3-(4-(Cyclohexyl(isobutyl)amino)-2-fluoro-5-(3-(2-fluoro-4-methylphenyl)ureido)phenyl)pentanoic acid]
IC50: < 5 nM

COCC(CC(=O)O)c1cc(F)c(N(CC(C)C)CC(C)C)c(NC(=O)Cc2ccc(Cl)cc2F)c1 (single isomer, unassigned) [Example 1187, 3-(3-(2-(4-Chloro-2-fluorophenyl)acetamido)-4-(diisobutylamino)-5-fluorophenyl)-4-methoxybutanoic acid]
IC50: < 5 nM

CCOc1ncc(Nc2cc(C(C)CC(=O)O)ccc2N2CCC[C@H]2C(C)(C)O)cn1 (single isomer, unassigned) [Example 806]
IC50: > 50 nM

CCC(CC(=O)O)c1ccc(N(CC(C)C)C2CCCCC2)c(Nc2ccc(Cl)c(OCC3CC3)c2)c1 (single isomer, unassigned) [Example 652, 3-(3-((4-chloro-3-(cyclopropylmethoxy)phenyl)amino)-4-(cyclohexyl(isobutyl)amino)phenyl)pentanoic acid]
IC50: < 50 nM

CCC(CC(=O)O)c1ccc(N(CC(C)C)C2CCCCC2)c(Nc2cnc(OC(C)C)nc2)c1 (single isomer, unassigned) [Example 655, 3-(4-(cyclohexyl(isobutyl)amino)-3-((2-isopropoxypyrimidin-5-yl)amino)phenyl)pentanoic acid]
IC50: < 5 nM

CCC(CC(=O)O)c1ccc(N2CCC[C@@H]2C(C)(C)O)c(NC(=O)Nc2ccc(F)cc2)c1 (single isomer, unassigned) [Example 775]
IC50: > 50 nM

CCC(CC(=O)O)c1cc(F)c(N(CC(C)C)CC(C)C)c(NC(=O)Cc2ccc(C)cc2)c1 (single isomer, unassigned) [Example 980-2]
IC50: < 5 nM

CCN(c1ccc(C(CC(=O)O)c2ccccc2)cc1Nc1ccc(Cl)cc1F)C1CCOCC1 (single isomer, unassigned) [Example 582, 3-(3-((4-chloro-2-fluorophenyl)amino)-4-(ethyl(tetrahydro-2H-pyran-4-yl)amino)phenyl)-3-phenylpropanoic acid]
IC50: < 50 nM

CCOc1ccc(NC(=O)Nc2cc(C(CC)CC(=O)O)ccc2N2CCC[C@@H]2C(C)(C)O)cc1 (single isomer, unassigned) [Example 778]
IC50: > 50 nM

CCC(CC(=O)O)c1ccc(N2CCC[C@H]2C(C)(C)O)c(NC(=O)Nc2ccc(OC)cc2)c1 (single isomer, unassigned) [Example 827]
IC50: > 50 nM

CC(C)CN(c1ccc(C(CC(=O)O)C2CC2)cc1NC(=O)Nc1ccc(Cl)cc1F)C1CCOCC1 (single isomer, unassigned) [Example 1199 Enantiomer 2, 3-(3-(3-(4-Chloro-2-fluorophenyl)ureido)-4-(isobutyl(tetrahydro-2H-pyran-4-yl)amino)phenyl)-3-cyclopropylpropanoic acid]
IC50: < 5 nM

CC(C)CN(CC(C)C)c1c(F)cc(C(CC(=O)O)c2ccccc2)cc1Nc1ccc(Cl)cc1 (single isomer, unassigned) [Example 131, 3-(3-((4-chlorophenyl)amino)-4-(diisobutylamino)-5-fluorophenyl)-3-phenylpropanoic acid]
IC50: < 50 nM

CCC(CC(=O)O)c1ccc(N(CC(C)C)CC(C)C)c(NC(=O)Cc2ccc(C#N)cc2)c1 (single isomer, unassigned) [Example 1105, 3-(3-(2-(4-Cyanophenyl)acetamido)-4-(diisobutylamino)phenyl)pentanoic acid]
IC50: < 5 nM

CCC(CC(=O)O)c1ccc(N2CCC[C@@H]2C(C)(C)O)c(NC(=O)Nc2ccc(OC)cc2)c1 (single isomer, unassigned) [Example 777]
IC50: > 50 nM

COCC(CC(=O)O)c1cc(F)c(N(CC(C)C)C2CCCCC2)c(NC(=O)Cc2ccc(Cl)cc2F)c1 (single isomer, unassigned) [Example 1175, 3-(3-(2-(4-chloro-2-fluorophenyl)acetamido)-4-(cyclohexyl(isobutyl)amino)-5-fluorophenyl)-4-methoxybutanoic acid]
IC50: < 50 nM

CCOc1ccc(CC(=O)Nc2cc(C(COC)CC(=O)O)cc(F)c2N(CC(C)C)CC(C)C)cc1 (single isomer, unassigned) [Example 1193, 3-(4-(Diisobutylamino)-3-(2-(4-ethoxyphenyl)acetamido)-5-fluorophenyl)-4-methoxybutanoic acid]
IC50: < 50 nM

COCC(CC(=O)O)c1ccc(N(CC(C)C)C2CCCCC2)c(NC(=O)Nc2cc(C)on2)c1 (single isomer, unassigned) [Example 987-2]
IC50: < 50 nM

CCC(CC(=O)O)c1cc(NC(=O)Nc2cncnc2)c(N(CC(C)C)C2CCCCC2)cc1F (single isomer, unassigned) [Example 1124, 3-(4-(Cyclohexyl(isobutyl)amino)-2-fluoro-5-(3-(pyrimidin-5-yl)ureido)phenyl)pentanoic acid]
IC50: < 5 nM

COCC(CC(=O)O)c1ccc(N(CC(C)C)C2CCCCC2)c(NC(=O)Cc2ccc(Cl)cc2F)c1 (single isomer, unassigned) [Example 1246, 3-(3-(2-(4-Chloro-2-fluorophenyl)acetamido)-4-(cyclohexyl(isobutyl)amino)phenyl)-4-methoxybutanoic acid]
IC50: < 5 nM

COCC(CC(=O)O)c1cc(F)c(N(CC(C)C)C2CCCCC2)c(NC(=O)Nc2ccc(C)cc2)c1 (single isomer, unassigned) [Example 1161, 3-(4-(cyclohexyl(isobutyl)amino)-3-fluoro-5-(3-(p-tolyl)ureido)phenyl)-4-methoxybutanoic acid]
IC50: < 5 nM

CCC(CC(=O)O)c1cc(F)c(N(CC(C)C)CC(C)C)c(Nc2ccnc(N3CCOCC3)n2)c1 (single isomer, unassigned) [Example 121, 3-(4-(diisobutylamino)-3-fluoro-5-((2-morpholinopyrimidin-4-yl)amino)phenyl) pentanoic acid]
IC50: > 50 nM

Cc1ccc(NC(=O)Nc2cc(C(C)CC(=O)O)c(F)cc2N(CC(C)C)C2CCCCC2)cc1 (single isomer, unassigned) [Example 957, 3-(4-(Cyclohexyl(isobutyl)amino)-2-fluoro-5-(3-(p-tolyl)ureido)phenyl)butanoic acid]
IC50: < 5 nM

CCC(CC(=O)O)c1ccc(N2CCC[C@H]2C(C)(C)O)c(NC(=O)Nc2ccc(OC)cc2F)c1 (single isomer, unassigned) [Example 830]
IC50: > 50 nM

CCC(CC(=O)O)c1ccc(N2CC3CC2CN3Cc2ccccc2)c(NC(=O)Nc2ccc(C)cc2)c1 (single isomer, unassigned) [667 E2]
IC50: > 50 nM

COCC(CC(=O)O)c1ccc(N(CC(C)C)C2CCCCC2)c(NC(=O)Nc2ccc(C)cc2)c1 (single isomer, unassigned) [Example 989-2]
IC50: < 5 nM

3-(4-((1,1-dioxidotetrahydro-2H-thiopyran-4-yl)(ethyl)amino)-3-((4-fluorophenyl)amino)phenyl)-4-isopropoxybutanoic acid [Example 300]
IC50: < 50 nM

CCOc1ccc(NC(=O)Nc2cc(C(CC)CC(=O)O)c(F)cc2N(CC(C)C)C2CCCCC2)c(F)c1 (single isomer, unassigned) [Example 1118, 3-(4-(Cyclohexyl(isobutyl)amino)-5-(3-(4-ethoxy-2-fluorophenyl)ureido)-2-fluorophenyl)pentanoic acid]
IC50: < 5 nM

CCC(CC(=O)O)c1ccc(N(CC2CC2)C2CCOCC2)c(NC(=O)Nc2cc(C)on2)c1 (single isomer, unassigned) [Example 700, 3-(4-((Cyclopropylmethyl)(tetrahydro-2H-pyran-4-yl)amino)-3-(3-(5-methylisoxazol-3-yl)ureido)phenyl)pentanoic acid]
IC50: > 50 nM
